Legend:
Assay type in all cases: cell-based
[1] = system: other receptor expression cells; experiment: cAMP production inhibitory activity on other receptor expression cells
GPR34 [2] = target: T1, GPR34 (Homo sapiens, UniProt Q9UPC5); experiment: Intracellular cAMP production inhibitory activity on GPR34-expressed CHO cells (forskolin stimulated); conditions: phosphatidylserine in a higher concentration
T1 construct: expressed in transfected cells
Method: The GPR34-expressed CHO cells prepared in (1-2) described above and selected in (1-3) described above were plated on a 24-well plate in 6×10^4 cells/well followed by incubation for 48 hours. The cells were washed with αMEM medium (pH 7.5) containing 0.2 mM 3-isobutylmethylxanthine, 0.05% BSA and 20 mM HEPES (hereinafter αMEM medium (pH 7.5) containing 0.2 mM 3-isobutylmethylxanthine, 0.05% BSA and 20 mM HEPES is referred to as the reaction buffer). Thereafter, 0.5 mL of the reaction buffer was added and the mixture was kept warm for 30 minutes in an incubator. The reaction buffer was removed and 0.25 mL of fresh reaction buffer was replenished to the cells. Then, 0.25 mL of the reaction buffer containing a sample and 2 μM forskolin was added to the cells, followed by reacting at 37° C. for 30 minutes. The reaction solution was removed and 0.5 mL of the cell lysis solution attached to cAMP EIA kit (Applied Biosystems) to extract cAMP in the cells. The cAMP level in the extract was quantified using the same kit. Based on this measurement data, the cAMP production inhibitory activity was calculated based on the equation shown below and expressed in terms of percentage to the control group. […]

[3] = system: mouse bone marrow-derived mast cells; experiment: MAPK activation: phosphorylation of ERK1/2 in mouse bone marrow-derived mast cells (BMMC); conditions: PTX 0.1 μg/mL, 4 hours before assay
Method: BMMC was established by collecting bone marrow fluid from the femur of male BALB/c mouse (Japan SLC), rinsing in RPMI1640 (Nikken Bio Medical Laboratory) and then incubating in a medium (RPMI1640, 50% WEHI-3 culture supernatant, 10% FBS (GIBCO), penicillin/streptomycin (BIOWHITTAKER), Non-Essential amino acids (GIBCO)) for 4 weeks. The cells were incubated in a CO2 incubator immediately before assay. Pertussis toxin (hereinafter PTX) was added to the cells in a final concentration of 0.1 μg/mL 4 hours before assay. BMMC was washed in ice-chilled assay buffer (Tyrode Buffer, 0.01% fatty acid free-BSA (SIGMA), 1 mM CaCl2, 1 mM MgCl2), and suspended in 2×10^6 cells/ml. The suspension was dispensed in a 1.5 mL tube followed by preincubation for 15 minutes at 37° C. The lysoPS solution and A23187 solution (Wako Pure Chemicals) as a positive control were added in equimolar amounts. After incubation at 37° C., the reaction was terminated by quenching. The cells were precipitated by centrifugation and the assay buffer was aspirated. After washing in PBS, 1×SDS sample buffer/DTT was added to the cells to lyse the cells. After ultrasonication for 15 seconds, the sample was heated at 95° C. for 5 minutes followed by quenching.
(§1) Detection by SDS-PAGE and western blotting were performed as follows. After separation using 10% Bis-Tris gel (Invitrogen), the gel was transferred to Immuno-Blot PVDF Membrane (BIO-RAD). The membrane was blocked with Block Ace (Dai-Nippon Pharmaceutical) and incubated at 4° C. overnight with a primary antibody (Phospho-p42/p44 MAP Kinase (Thr202/Thr204) Antibody (CST) or p42/p44 MAP Kinase Antibody (CST)) and further incubated at room temperature for an hour using a secondary antibody (Anti-rabbit IgG (CST)). The membrane after the antibody reaction was visualized by chemiluminescence using ECL PLUS (Amersham Biosciences). Detection and image analysis were performed using LAS1000 (FUJI FILM).

GPR34 [4] = target: T1, GPR34; experiment: MAPK activation: phosphorylation of ERK1/2 in human GPR34-expressed CHO cells (western blotting); conditions: PTX 0.1 μg/mL, 20 hours before the assay
Method: The cells were prepared as described below. Human GPR34-expressed CHO cells were scraped off with 0.05% trypsin-EDTA (GIBCO) and suspended in a medium (MEM-α (GIBCO), supplemented with 10% FBS (GIBCO) and penicillin/streptomycin (BIOWHITTAKER)). After centrifugation, the cells precipitated were suspended in the medium in 2×10^5 cells/ml and a 1 mL aliquot was plated on a 35 mm cell culture dish. After incubation overnight in a CO2 incubator, the medium was aspirated and washed in PBS. Then 1 mL of serum-free medium (MEM-α (GIBCO), supplemented with penicillin/streptomycin (BIOWHITTAKER)) and incubation was performed in a CO2 incubator. Pertussis toxin (hereinafter PTX) was added in a final concentration of 0.1 μg/mL 20 hours before the assay.
The cells were activated as follows. The medium was aspirated and washed in PBS. Thereafter, 500 μL of assay buffer (HBSS (GIBCO), 10 mM HEPES (Dojin Chemical Laboratory)) was added to perform preincubation for 15 minutes at 37° C. The lysoPS solution and […] of PECGF ([…] cell growth factor) solution as a positive control were added. After the mixture was incubated at 37° C., the reaction was terminated by quenching. The assay buffer was aspirated and washed in PBS. Then, 1×SDS sample buffer/DTT was added to the cells to recover the cells. After ultrasonication for 15 seconds, heating at 95° C. for 5 minutes was followed by quenching.
as §1, with “(Bio-Rad).” for “(BIO-RAD).”, “room temperature for an hour” for “4° C. overnight”, “Detection and image analysis were performed using LAS1000 (FUJI FILM).” left out

[5] = system: rat peritoneal mast cells; experiment: MAPK activation: phosphorylation of ERK1/2 in rat peritoneal mast cells (RPMC); conditions: PTX 0.1 μg/mL, 4 hours before assay
Method: Pertussis toxin (hereinafter PTX) was added to the cells in a final concentration of 0.1 μg/mL 4 hours before assay. RPMC was washed in ice-chilled assay buffer (Tyrode Buffer, 0.01% fatty acid free-BSA (SIGMA), 1 mM CaCl2, 1 mM MgCl2), and suspended in 2×10^6 cells/ml. The suspension was dispensed in a 1.5 mL tube followed by preincubation for 15 minutes at 37° C. The lysoPS solution was added thereto in an equimolar amount. After incubation at 37° C., the reaction was terminated by quenching. The cells were precipitated by centrifugation and the assay buffer was aspirated. After washing in PBS, 1×SDS sample buffer/DTT was added to the cells to lyse the cells. After ultrasonication for 15 seconds, heating at 95° C. for 5 minutes was followed by quenching.
as §1, with “hour with” for “hour using”, “Biosciences). […]” for “Biosciences). Detection and image analysis were performed using LAS1000 (FUJI FILM).”

T1 sequence (Q9UPC5 whole entry): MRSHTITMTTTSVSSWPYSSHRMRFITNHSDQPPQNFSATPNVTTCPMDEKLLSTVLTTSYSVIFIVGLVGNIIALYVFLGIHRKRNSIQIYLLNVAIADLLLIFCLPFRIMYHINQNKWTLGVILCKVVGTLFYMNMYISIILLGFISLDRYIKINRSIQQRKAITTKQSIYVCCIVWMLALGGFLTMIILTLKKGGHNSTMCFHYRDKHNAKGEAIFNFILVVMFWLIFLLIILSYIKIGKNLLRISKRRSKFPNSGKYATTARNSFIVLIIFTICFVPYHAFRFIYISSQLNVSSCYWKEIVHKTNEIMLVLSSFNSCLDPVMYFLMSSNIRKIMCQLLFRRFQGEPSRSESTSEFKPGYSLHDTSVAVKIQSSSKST

| cAMP production inhibitory activity (GPR34 [2]) | Substance | cAMP production inhibitory action on other receptor expression cells [1] | effect of PTX pretreatment on phosphorylation of ERK1/2 by lysoPS [3] | effect of PTX pretreatment on phosphorylation of ERK1/2 by lysoPS (GPR34 [4]) | effect of PTX pretreatment on phosphorylation of ERK1/2 by lysoPS [5] |
| --- | --- | --- | --- | --- | --- |
| marked activities | phosphatidylserine | not noted |  |  |  |
|  | Pertussis toxin [PTX] |  | attenuated to the level below the detection limit | attenuated to the level below the detection limit | attenuated to the level below the detection limit |

From patent publication US7951548B2, “IL-13 production inhibitor” (Takeda Pharmaceutical Company Limited, priority 2005, dated 2011)
